{"source": "ChEMBL document CHEMBL3091442", "about": "“Synthesis and antitumor activity evaluation of maleopimaric acid N-aryl imide atropisomers” (Bioorg Med Chem Lett, 2013)", "key": {"[1]": {"system": "MGC-803", "experiment": "Cytotoxicity against human MGC803 cells after 72 hrs by MTT assay", "format": "functional, cell-based", "conditions": "MGC-803, 72 h"}, "[2]": {"system": "HepG2", "experiment": "Cytotoxicity against human HepG2 cells after 72 hrs by MTT assay", "format": "functional, cell-based", "conditions": "HepG2, 72 h"}, "[3]": {"system": "HCT-116", "experiment": "Cytotoxicity against human HCT116 cells after 72 hrs by MTT assay", "format": "functional, cell-based", "conditions": "HCT-116, 72 h"}, "[4]": {"system": "A549", "experiment": "Cytotoxicity against human A549 cells after 72 hrs by MTT assay", "format": "functional, cell-based", "conditions": "A549, 72 h"}, "[5]": {"system": "NCI-H460", "experiment": "Cytotoxicity against human NCI-H460 cells after 72 hrs by MTT assay", "format": "functional, cell-based", "conditions": "NCI-H460, 72 h"}, "[6]": {"system": "NCI-H460", "experiment": "Induction of apoptosis in human NCI-H460 cells assessed as late apoptotic cells at 45 uM after 24 hrs by Annexin V-FITC/propidium iodide staining-based flow cytometry (reference value: 0.8%)", "format": "functional"}, "[7]": {"system": "NCI-H460", "experiment": "Induction of apoptosis in human NCI-H460 cells assessed as early apoptotic cells at 45 uM after 24 hrs by Annexin V-FITC/propidium iodide staining-based flow cytometry (reference value: 1.5%)", "format": "functional"}, "[8]": {"system": "NCI-H460", "experiment": "Cell cycle arrest in human NCI-H460 cells assessed as accumulation at diploid S phase at IC50 after 48 hrs by propidium iodide staining-based FACS analysis (reference value: 23.27%)", "format": "functional"}, "[9]": {"system": "NCI-H460", "experiment": "Cell cycle arrest in human NCI-H460 cells assessed as accumulation at diploid G2 phase at IC50 after 48 hrs by propidium iodide staining-based FACS analysis (reference value: 8.14%)", "format": "functional"}, "[10]": {"system": "NCI-H460", "experiment": "Cell cycle arrest in human NCI-H460 cells assessed as accumulation at diploid G1 phase at IC50 after 48 hrs by propidium iodide staining-based FACS analysis (reference value: 68.60%)", "format": "functional"}}}
{"smiles": "CC(C)C1=C[C@]23CC[C@@H]4[C@](C)(CCC[C@@]4(C)C(=O)O)[C@H]2C[C@H]1[C@H]1C(=O)OC(=O)[C@H]13", "values": [{"measurement": "IC50", "setting": "[1]", "value": 61.8, "unit": "µM"}, {"measurement": "IC50", "setting": "[2]", "value": "> 100", "unit": "µM"}, {"measurement": "IC50", "setting": "[3]", "value": 98.7, "unit": "µM"}, {"measurement": "IC50", "setting": "[4]", "value": 81.2, "unit": "µM"}, {"measurement": "IC50", "setting": "[5]", "value": "> 100", "unit": "µM"}]}
{"smiles": "O=c1[nH]cc(F)c(=O)[nH]1", "note": "[FLUOROURACIL]", "values": [{"measurement": "Activity", "setting": "[6]", "value": 6.5, "unit": "%"}, {"measurement": "Activity", "setting": "[7]", "value": 16.8, "unit": "%"}, {"measurement": "IC50", "setting": "[1]", "value": 15.3, "unit": "µM"}, {"measurement": "IC50", "setting": "[2]", "value": 19.4, "unit": "µM"}, {"measurement": "IC50", "setting": "[3]", "value": 8.32, "unit": "µM"}, {"measurement": "IC50", "setting": "[4]", "value": 20.1, "unit": "µM"}, {"measurement": "IC50", "setting": "[5]", "value": 23.3, "unit": "µM"}, {"measurement": "Activity", "setting": "[8]", "value": 28.07, "unit": "%"}, {"measurement": "Activity", "setting": "[9]", "value": 0, "unit": "%"}, {"measurement": "Activity", "setting": "[10]", "value": 71.93, "unit": "%"}]}
